Laboratory results published in patent publication US20260234166A1, “FUSED RING COMPOUND AND USE THEREOF” (HITGEN INC., priority 2023, published 2026).
pIC50: −log10 of the molar value. Read-outs that look alike come from different tables or passages of the source.

Molecular target: CRBN/DDB1 protein (Homo sapiens, UniProt Q96SW2)
Test: Detection of inhibition of CRBN/DDB1 activity by compounds (FRET)
Type: binding
Protocol: Test Example 1 Detection of Inhibition of CRBN/DDB1 Activity by Compounds (FRET)
Microplate reader (BMG PHERAstar FSX), ECHO (LABCYTE Echo 665), microplate thermostatic oscillator (Hangzhou Ruicheng Instrument Co., Ltd.), disodium hydrogen phosphate (Sigma), sodium dihydrogen phosphate (Sigma), bovine serum albumin (Sigma), Anti-6His-Tb crypate Gold (CISBIO), CRBN/DDB1 protein (HitGen) and 384-well plate (Grenier Bio-one).
The dry powder of the compound was dissolved in DMSO, and the compound was serially diluted using ECHO, and added to a 384-well reaction plate, so that the final concentration of DMSO in the whole reaction system (10.0 μL) was 1.0%, and the same amount of DMSO was added as a control.
20 mM disodium hydrogen phosphate, 20 mM sodium dihydrogen phosphate, 0.08% bovine serum albumin and buffer with pH of 7.0 were used to dilute the CRBN/DDB1 protein to twice the required final concentration (5.0 nM), and 5.0 μL of the diluted CRBN/DDB1 protein was added into the 384-well reaction plate added with compounds, centrifuged at 1000 rpm for 1 min, then placed on a microplate thermostatic oscillator, and pre-incubated at 25° C. and 250 rpm for 15 min. 20 mM disodium hydrogen phosphate, 20 mM sodium dihydrogen phosphate, 0.08% bovine serum albumin and buffer with a pH of 7.0 were used to dilute Anti-6His-Tb crypate Gold and FITC-labeled thalidomide analogues to twice the required final concentration, and the final concentration of Anti-6His-Tb crypate Gold was 0.2 nM, the final concentration of FITC-labeled thalidomide analogues was 50.0 nM, and a mixed solution of Anti-6His-Tb crypate Gold/FITC-labeled thalidomide analogues was obtained. […] After the reaction was completed, the fluorescence signal value (Ex-337 nm Em=520/490 nm) in the 384-well reaction plate was read by the microplate reader. […]
The percentage of residual activity of each concentration was calculated as follows: […]
Then, the dose-effect curve was fitted using GraphPad Prism 6.0 and the IC50 value was calculated accordingly.

CRBN/DDB1 protein, sequence (Q96SW2 whole entry, species assumed): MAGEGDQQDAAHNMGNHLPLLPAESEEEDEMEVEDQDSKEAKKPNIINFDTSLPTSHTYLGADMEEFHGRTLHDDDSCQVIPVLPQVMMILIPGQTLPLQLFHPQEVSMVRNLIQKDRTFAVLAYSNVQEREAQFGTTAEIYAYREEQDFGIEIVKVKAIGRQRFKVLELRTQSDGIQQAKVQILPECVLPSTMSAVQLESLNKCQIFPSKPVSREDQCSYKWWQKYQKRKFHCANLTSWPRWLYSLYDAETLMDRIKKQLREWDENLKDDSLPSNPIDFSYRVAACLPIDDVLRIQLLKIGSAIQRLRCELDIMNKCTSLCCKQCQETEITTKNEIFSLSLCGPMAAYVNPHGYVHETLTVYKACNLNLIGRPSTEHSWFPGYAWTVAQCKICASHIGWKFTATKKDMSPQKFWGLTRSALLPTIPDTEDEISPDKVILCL
CRBN/DDB1 protein, sequence (Q16531 whole entry partner, species assumed): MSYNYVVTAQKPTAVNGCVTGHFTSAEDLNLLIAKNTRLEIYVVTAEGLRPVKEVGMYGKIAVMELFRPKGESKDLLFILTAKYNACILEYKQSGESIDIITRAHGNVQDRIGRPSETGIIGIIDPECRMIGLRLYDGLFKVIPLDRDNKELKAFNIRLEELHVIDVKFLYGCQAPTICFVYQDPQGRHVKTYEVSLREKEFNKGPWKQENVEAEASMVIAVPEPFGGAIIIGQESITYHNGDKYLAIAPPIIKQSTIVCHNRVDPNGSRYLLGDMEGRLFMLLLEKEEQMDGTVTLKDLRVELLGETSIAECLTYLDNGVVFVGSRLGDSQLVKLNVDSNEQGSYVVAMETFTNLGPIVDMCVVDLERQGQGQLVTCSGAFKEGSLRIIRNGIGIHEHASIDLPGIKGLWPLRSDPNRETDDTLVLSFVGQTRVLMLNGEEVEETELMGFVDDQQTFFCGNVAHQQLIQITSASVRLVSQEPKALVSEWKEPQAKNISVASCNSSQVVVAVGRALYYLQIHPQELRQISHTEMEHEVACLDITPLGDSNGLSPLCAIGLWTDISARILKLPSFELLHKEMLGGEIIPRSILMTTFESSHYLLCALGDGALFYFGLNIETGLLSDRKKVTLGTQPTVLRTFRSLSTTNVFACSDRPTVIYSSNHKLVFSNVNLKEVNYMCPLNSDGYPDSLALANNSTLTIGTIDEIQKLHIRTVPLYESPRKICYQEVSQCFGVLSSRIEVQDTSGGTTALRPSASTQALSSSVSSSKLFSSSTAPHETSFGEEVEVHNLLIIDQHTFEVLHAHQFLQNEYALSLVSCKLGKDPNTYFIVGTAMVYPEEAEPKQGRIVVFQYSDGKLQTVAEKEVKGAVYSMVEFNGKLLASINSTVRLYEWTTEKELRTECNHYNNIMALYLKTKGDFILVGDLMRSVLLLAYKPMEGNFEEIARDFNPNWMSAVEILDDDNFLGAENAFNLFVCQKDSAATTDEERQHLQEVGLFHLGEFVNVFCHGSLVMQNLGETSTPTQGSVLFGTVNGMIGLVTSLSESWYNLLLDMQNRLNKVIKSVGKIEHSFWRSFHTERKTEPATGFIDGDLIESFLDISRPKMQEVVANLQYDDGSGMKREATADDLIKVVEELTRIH

pIC50 (FRET, 5.0 nM CRBN/DDB1, 0.2 nM Anti-6His-Tb, 50.0 nM FITC-labeled thalidomide analogue, 1.0% DMSO, 25° C., read-out: IC50, inhibition of CRBN/DDB1 protein) | Structure (SMILES) | pIC50
 | O=C1CC2(CN(C(=O)c3c4n(c5ccccc35)C=NC4=O)C2)C(=O)N1 [Compound B3] | 7.37
 | O=C1CC2(CN(C(=O)c3c4n(c5ccccc35)CNC4=O)C2)C(=O)N1 [Compound B4] | 7.74
7.96 | CN1Cn2c(c(C(=O)N3CC4(CC(=O)NC4=O)C3)c3ccccc32)C1=O [Compound B5] | 
